Measured values as given in patent publication US20030108523A1, “Cancer treatment system” (priority 2001, published 2003).

Columns and labels:
Mesothelioma cells = assay: Cell-growth inhibition assay (MTT colorimetric assay); format: cell-based, human
Method: Various mesothelioma cell lines were established from specimens obtained from pleural effusions of patients with established pleural malignant mesothelioma. Cell cultures were performed according to standard methods. Briefly, pleural effusions were centrifuged and the cell pellets were transferred into 25 cm^2 tissue culture flasks. The medium consisted of RPMI 1640 supplemented with 10% fetal bovine serum, 2 mM glutamine, 10 mM HEPES buffer, 50 U/ml penicillin, and 50 μg/ml streptomycin. Cultures were maintained in humidified atmosphere of 5% CO2 at 37° C. and examined daily. When cells were confluent, a trypsin-EDTA mixture in PBS was used to detach the cells, and the cultures were used between passages 5 and 20.
Mesothelioma cells were counted and dispensed into eight, 96-well tissue-culture plates (Costar, Cambridge, Mass.) at a concentration of 2,000 cells/well in 100 μl of culture medium. […] Culture plates were then incubated for different times between 0 and 168 hours and cell proliferation was measured every 24 hours. […]
Cell proliferation was determined by a colorimetric assay using MTT [3(4,5-dimethylthiazol-2yl)2,5-diphenyltetrazolium bromide], a tetrazolium salt which is reduced to a colored formazan product by reducing enzymes present only in metabolically active cells. (See Alley et al., “Feasibility of drug screening with panel of human tumor cell lines using a microculture tetrazolium assay” Cancer Res. 48: 589-601, 1988.) Thus, metabolically active cells such as cells undergoing division will produce more formazan, which can be detected by a spectrophotometer.
Briefly, twenty-five μls of MTT solution were added to culture wells containing cells as described above. […] Absorption of each well was measured using a spectrophotometer at 540 nm. The effect of α-MSH on cell proliferation was determined as percent OD difference in α-MSH treated wells relative to control wells. […]

NF-κB = details: U937 cells; cited from earlier work
[1] = in vivo; cited from earlier work

Substance | Dose dependence of the inhibitory effect on mesothelioma cell proliferation (Mesothelioma cells; 10^-6 to 10^-4 M, FIG. 2) | Concentration at which the inhibitory effect was most significant and consistent (Mesothelioma cells; FIG. 2) | Cell proliferation of treated versus control wells, early intervals (Mesothelioma cells; intervals between 24 and 72 h) | NF-κB activation induced by TNF-α, endotoxin, ceramide and okadaic acid (NF-κB) | Potency in reducing fever relative to the parent peptide α-MSH [1]
SYSMEHFRWGKPV (listed as Homo sapiens) [α-MSH, thirteen amino-acid peptide produced by post-translational processing of propiomelanocortin] | dose-dependent | 10^−4 M | no difference in cell proliferation | downregulates NF-κB activation | –
[Nle4-D-Phe7]-α-MSH | – | – | – | – | approximately ten times more potent
